The numbers were not newly measured in patent US20220273590A1, “COMPOUNDS FOR PREVENTION AND TREATMENT OF POST-OPERATIVE COGNITIVE DYSFUNCTION” (ABREXA PHARMACEUTICALS, INC., priority 2019, published 2022), which cites them from elsewhere.

For the data set the following is noted: cited from earlier work.

As for `Cc1cccc([C@H](C)c2cnc[nH]2)c1C` [Dexmedetomidine], the “efficacy for POCD” value (Skvarc et al. (2018)) was “failed to show efficacy”.

Turning to `[Mg+2]` [Magnesium], under “administered intravenously during cardiac surgery, clinical trial NCT00041392”, the “reduction of POCD” value is listed as “failed to reduce POCD”.

As to `CCN(C)C(=O)Oc1cccc([C@H](C)N(C)C)c1` [Rivastigmine], where the note is “clinical investigation NCT00835159, at termination”, the “efficacy for the treatment of POCD” value is “no efficacy was observed”. The “safety in the treatment of POCD” value (seriously ill patients after surgery, clinical investigation NCT00835159 terminated) was “too dangerous”.
